# Experimental data: patent US10532985B2, “Heterocycle and carbocycle derivatives having TRKA inhibitory activity” (Shionogi & Co., Ltd., priority 2014, dated 2020)
# How the values were obtained:
# [1] = target: T1, human TrkA (Homo sapiens, UniProt P04629); test: Test Example 2: Human TrkA Inhibition Assay; format: biochemical; settings: Test Example 2
# T1 construct: purchased Lifetechnologies PV3144
# Procedure, shortened: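 Mobility-shift kinase assay: 90 min reaction at room temperature, stopped with EDTA buffer; phosphorylated and non-phosphorylated fluorescent substrate measured, conversion ratio calculated. Inhibition % normalised between DMSO-only wells and no-TrkA wells.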
# [2] = target: T1, human TrkA; test: Test Example 2-2: Human TrkA Inhibition Assay; format: biochemical
# Experimental: Seven point five μL per well of human TrkA (PV3144, Lifetechnologies, final concentration: 1 nmol/L) suspended in the assay buffer (100 mmol/L 4-(2-hydroxyethyl)-1-piperazineethanesulfonic acid (HEPES), 10 mmol/L magnesium chloride, 0.003 vol % Brij-35, 0.004 vol % Tween20 and 1 mmol/L dithiothreitol (DTT)) was applied in a 384 well plate and the plate was pre-incubated for 15 min at room temperature with 0.4 μL of each compound (final concentration: […]) dissolved in DMSO. Then, fluorescent substrate (FL-peptide 27, 760424, PerkinElmer, final concentration: 1.5 μmol/L) and ATP (final concentration […]) dissolved in the assay buffer was added in each well. After the incubation of 120 min at 37° C., fifteen μL of termination buffer (100 mmol/L HEPES, 40 mmol/L ethylenediaminetetraacetic acid (EDTA), 10 mmol/L magnesium chloride, 0.003 vol % Brij-35, 0.004 vol % Tween20, 1 mmol/L DTT and 0.16 vol % Coating Reagent 3) was added in each well to stop the enzyme reaction. Fluorescent intensities (FI) of phosphorylated and non-phosphorylated fluorescent substrates were measured by LabChip EZReader II (Caliper LifeSciences, Inc.), and conversion ratio (CR) was calculated by the following formula-1. The CR in the well applied with DMSO alone was used as a negative control and the CR in the well without applying TrkA was used as a positive control. The inhibitory effect of each compound on TrkA phosphorylation was calculated by the following formula-2. CR (%)=(FI of phosphorylated substrate/(FI of phosphorylated substrate+FI of non-phosphorylated substrate))×100 (Formula-1) Phosphorylation inhibition (%)=(1−(CR with compound treatment−CR of positive control)/(CR of negative control−CR of positive control))×100 (Formula-2) Inhibitory effect on TrkA phosphorylation (%)=(1−(CR in compound treated well−CR in positive control)/(CR in negative control−CR in positive control))×100.
# The 50/o inhibitory concentration (IC50) was determined by the logistic regression using the inhibition data in 10 points at a range of 2 μmol/L to 0.1 nmol/L or 200 μmol/L to 10 nmol/L).
# [3] = target: T2, human ether-a-go-go related gene (hERG) channel (Homo sapiens, UniProt Q12809); test: Test Example 3: hERG Test (whole cell patch clamp, IKr); format: cell-based; settings: CHO cells expressing hERG
# T2 construct: expressed in transfected cells; host or cells: CHO cells
# T2 sequence (Q12809 whole entry): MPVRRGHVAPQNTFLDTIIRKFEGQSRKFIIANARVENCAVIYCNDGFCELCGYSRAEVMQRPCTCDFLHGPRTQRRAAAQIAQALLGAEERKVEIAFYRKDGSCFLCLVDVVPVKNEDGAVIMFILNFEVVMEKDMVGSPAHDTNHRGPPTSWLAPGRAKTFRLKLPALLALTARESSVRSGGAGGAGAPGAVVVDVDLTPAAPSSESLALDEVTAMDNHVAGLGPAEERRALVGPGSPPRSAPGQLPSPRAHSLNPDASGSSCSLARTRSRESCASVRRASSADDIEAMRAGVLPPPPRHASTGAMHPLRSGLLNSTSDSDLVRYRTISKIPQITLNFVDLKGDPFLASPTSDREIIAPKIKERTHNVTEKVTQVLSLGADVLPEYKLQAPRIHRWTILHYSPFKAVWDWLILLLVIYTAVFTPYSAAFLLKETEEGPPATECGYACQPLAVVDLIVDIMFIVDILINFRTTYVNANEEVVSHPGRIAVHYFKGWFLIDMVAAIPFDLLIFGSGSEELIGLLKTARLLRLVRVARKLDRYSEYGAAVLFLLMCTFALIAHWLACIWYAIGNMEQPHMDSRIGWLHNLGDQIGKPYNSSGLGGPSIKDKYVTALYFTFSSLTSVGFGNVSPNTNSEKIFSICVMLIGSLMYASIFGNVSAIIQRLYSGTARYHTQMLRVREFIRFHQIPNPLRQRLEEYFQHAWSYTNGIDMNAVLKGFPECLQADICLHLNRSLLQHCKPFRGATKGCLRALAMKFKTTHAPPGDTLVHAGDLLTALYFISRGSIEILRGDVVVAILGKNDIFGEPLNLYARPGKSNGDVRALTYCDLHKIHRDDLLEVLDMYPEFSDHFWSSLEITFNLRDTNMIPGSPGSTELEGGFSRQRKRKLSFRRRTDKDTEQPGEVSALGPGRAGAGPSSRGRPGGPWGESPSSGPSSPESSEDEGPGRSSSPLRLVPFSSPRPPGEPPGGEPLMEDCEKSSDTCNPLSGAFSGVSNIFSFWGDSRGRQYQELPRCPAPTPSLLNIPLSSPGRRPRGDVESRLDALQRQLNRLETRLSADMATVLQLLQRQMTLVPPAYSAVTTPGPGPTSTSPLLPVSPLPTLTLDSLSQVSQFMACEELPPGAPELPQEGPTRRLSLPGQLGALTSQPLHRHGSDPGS
# From the text: For the purpose of assessing risk of an electrocardiogram QT interval prolongation of the compound of the present invention, effects of the compound of the present invention on delayed rectifier K current (I r), which plays an important role in the ventricular repolarization process, was studied using CHO cells expressing human ether-a-go-go related gene (hERG) channel.
# After a cell was retained at a membrane potential of −80 mV by whole cell patch clamp method using an automated patch clamp system (QPatch; Sophion Bioscience A/S), IKr induced by leak potential at −50 mV, and then depolarization pulse stimulation at +20 mV for 2 seconds and, further, repolarization pulse stimulation at −50 mV for 2 seconds, was recorded. After the generated current was stabilized, extracellular solution (NaCl: 145 mmol/L, KCl: 4 mmol/L, CaCl2: 2 mmol/L, MgCl2: 1 mmol/L, glucose: 10 mmol/L, HEPES (4-(2-hydroxyethyl)-1-piperazineethanesulfonic acid): 10 mmol/L, pH7.4), in which the compound of the present invention had been dissolved at an objective concentration, was applied to the cell at room temperature for 10 minutes. From the recording IKr, an absolute value of the tail peak current was measured based on the current value at the resting membrane potential using analysis software (Falster Patch; Sophion Bioscience A/S). Further, the % inhibition relative to the tail peak current before application of the compound of the present invention was calculated, and compared with the vehicle-applied group (0.1% dimethyl sulfoxide solution) to assess influence of the compound of the present invention on IKr.
# [4] = Test Example 9: Metabolism Stability Test; format: in vitro ADME; settings: human liver microsomes 0.5 mg protein/mL, 30 minutes, 37° C., 1 mmol/L NADPH
# Experimental: (§1) Using commercially available pooled human hepatic microsomes, a compound of the present invention was reacted for a constant time, and a remaining rate was calculated by comparing a reacted sample and an unreacted sample, thereby, a degree of metabolism in liver was assessed.
# (§2) A reaction was performed (oxidative reaction) at 37° C. for 0 minute or 30 minutes in the presence of 1 mmol/L NADPH in 0.2 mL of a buffer (50 mmol/L Tris-HCl pH 7.4, 150 mmol/L potassium chloride, 10 mmol/L magnesium chloride) containing 0.5 mg protein/mL of human liver microsomes. After the reaction, 50 μL of the reaction solution was added to 100 μL of a methanol/acetonitrile=1/1 (v/v), mixed and centrifuged at 3000 rpm for 15 minutes. The compound of the present invention in the supernatant was quantified by LC/MS/MS, and a remaining amount of the compound of the present invention after the reaction was calculated, letting a compound amount at 0 minute reaction time to be 100%.
# [5] = Test Example 9-2: Metabolism Stability Test; format: in vitro ADME; settings: human liver microsomes 0.5 mg protein/mL, 30 minutes, 37° C., 1 mmol/L NADPH
# Experimental: as §1
# as §2, with “LC/MS/MS or Solid Phase Extraction (SPE)/MS,” for “LC/MS/MS,”
# [6] = human TrkA 2.5 nmol/L, ATP 500 μmol/L, 90 min at room temperature, read-out: TrkA inhibitory activity IC50
# [7] = human TrkA 1 nmol/L, 120 min at 37° C., read-out: TrkA inhibition IC50
# [8] = human TrkA inhibition, class symbols A/B/C, read-out: IC50_nM
# T1 sequence (P04629 33-796): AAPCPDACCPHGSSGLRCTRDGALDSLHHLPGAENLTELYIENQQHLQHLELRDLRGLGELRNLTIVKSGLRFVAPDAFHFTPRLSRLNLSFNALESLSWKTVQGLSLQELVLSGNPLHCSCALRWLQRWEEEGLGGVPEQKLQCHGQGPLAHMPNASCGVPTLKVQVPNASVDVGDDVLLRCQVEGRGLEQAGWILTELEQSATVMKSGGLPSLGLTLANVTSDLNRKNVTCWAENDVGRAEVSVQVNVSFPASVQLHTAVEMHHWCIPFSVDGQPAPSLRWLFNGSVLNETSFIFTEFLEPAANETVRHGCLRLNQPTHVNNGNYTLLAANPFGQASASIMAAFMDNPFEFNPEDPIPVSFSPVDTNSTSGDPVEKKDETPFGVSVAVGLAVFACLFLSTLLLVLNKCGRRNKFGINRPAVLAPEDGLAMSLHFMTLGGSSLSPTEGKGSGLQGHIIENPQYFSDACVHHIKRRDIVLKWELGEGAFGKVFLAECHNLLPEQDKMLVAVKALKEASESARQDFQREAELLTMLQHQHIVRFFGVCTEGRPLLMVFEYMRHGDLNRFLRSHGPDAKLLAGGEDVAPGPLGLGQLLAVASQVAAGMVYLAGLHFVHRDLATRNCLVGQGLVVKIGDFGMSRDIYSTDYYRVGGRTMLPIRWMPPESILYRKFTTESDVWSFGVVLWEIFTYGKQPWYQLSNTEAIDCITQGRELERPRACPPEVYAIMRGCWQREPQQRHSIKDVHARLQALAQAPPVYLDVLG
"IC50 [1, 6] [nM]","IC50 [2, 7] [nM]",SMILES,% inhibition of IKr (hERG tail peak current) [3] [%],other results
26,71,COCCN1C[C@@H](NC(=O)Cc2c(C)c(-c3cnn(C)c3)nn2-c2ccccc2)[C@H](c2ccc(F)c(F)c2)C1 [Compound I-8],–,–
–,–,COCC(=O)N1C[C@@H](NC(=O)Nc2c(C)c(-c3cnn(C)c3)nn2-c2ccccc2)[C@H](c2ccc(F)c(F)c2)C1 [Compound I-026],3.3,–
–,–,COCCN1C[C@@H](NC(=O)Nc2c(C)c(-c3cnn(C)c3)nn2-c2ccccc2)[C@H](c2ccnc(C#N)c2)C1 (racemic) [Compound I-180],–,"IC50 [2, 8]: 100 to 1000 nM; remaining amount of compound after reaction [4]: 90%"
–,–,COCC[C@@H]1C[C@@H](NC(=O)Nc2c(C)c(-c3cnn(C)c3)nn2-c2ccccc2)[C@H](c2ccccc2)C1 [Compound I-084],10.0,–
0.72,1.5,COCC[C@@H]1C[C@@H](NC(=O)Nc2c(C)c(-c3cnn(C)c3)nn2-c2ccccc2)[C@H](c2ccccc2)C1 [Compound I-84],–,–
121,410,COCCN1C[C@@H](NC(=O)Nc2c(C)c(-c3cnn(C)c3)nn2-c2ccccc2)[C@](C)(c2ccccc2)C1 (racemic) [Compound I-16],–,–
1.1,1.8,Cc1c(-c2cnn(C)c2)nn(-c2ccccc2)c1NC(=O)N[C@@H]1CN(Cc2ccco2)C[C@H]1c1ccc(F)c(F)c1 [Compound I-86],–,–
43,21,CC=C1C[C@@H](NC(=O)Nc2c(C)c(-c3cnn(C)c3)nn2-c2ccccc2)[C@H](c2ccccc2)C1 [Compound I-102],–,–
7.8,37,COCCC1C[C@@H](NC(=O)Nc2c(C)c(-c3cnn(C)c3)nn2-c2ccccc2)[C@H](c2ccc(F)c(F)c2)N1 (stereo partly drawn) [Compound I-91],–,–
35,170,Cc1c(-c2cnn(C)c2)nn(-c2ccccc2)c1NC(=O)N[C@@H]1CN(CCOCC(F)(F)F)C[C@H]1c1ccc(F)c(F)c1 [Compound I-22],–,–
22,210,COCCN1C[C@@H](NC(=O)Nc2c(C)c(-c3cnn(C)c3)nn2-c2ccccc2)[C@H](c2ccc3c(c2)OCO3)C1 (racemic) [Compound I-94],–,–
1.8,5.4,COCCC1C[C@@H](NC(=O)Nc2c(C)c(-c3cnn(C)c3)nn2-c2ccccc2)[C@H](c2ccc(F)c(F)c2)N1C (stereo partly drawn) [Compound I-87],–,–
–,1.1,COCC[C@@H]1C[C@@H](NC(=O)Nc2c(C)c(-c3cnc(C)nc3)nn2-c2ccccc2)[C@H](c2ccc(F)c(F)c2)N1C [Compound I-255],10.2,–
–,–,COCCN1C[C@@H](NC(=O)Nc2c(C)c(-c3cnn(C)c3)nn2-c2ccccc2)[C@H](c2ccc3c(c2)NC(=O)CO3)C1 (racemic) [Compound I-136],–,"IC50 [1, 8]: 100 to 1000 nM; remaining amount of compound after reaction [5]: 104%"
–,–,COCCC1C[C@@H](NC(=O)Nc2c(C)c(-c3cnn(C)c3)nn2-c2ccccc2)[C@H](c2ccc(O)c(O)c2)C1 (stereo partly drawn) [Compound I-221],13.2,"IC50 [2, 8]: < 100 nM"
–,–,COCC[C@@H]1C[C@@H](NC(=O)Nc2c(C)c(-c3cnn(C)c3)nn2-c2ccccc2)[C@H](c2ccc(F)c(F)c2)N1C [Compound I-214],20.2,"IC50 [2, 8]: < 100 nM"
65,50,COCC[N+]1([O-])C[C@@H](NC(=O)Nc2c(C)c(-c3cnn(C)c3)nn2-c2ccccc2)[C@H](c2ccc(F)c(F)c2)C1 (stereo partly drawn) [Compound I-3],20.4,–
29,160,COCCN1C[C@@H](NC(=O)Nc2c(C)c(-c3cnn(C)c3)nn2-c2ccccc2)[C@H](c2cccc(O)c2)C1 (racemic) [Compound I-96],–,remaining amount of compound after reaction [5]: 90%
–,4.8,COCC[C@@H]1C[C@@H](NC(=O)Nc2c(C)c(-c3cnn(C)c3)nn2-c2ccccc2)[C@H](c2ccnc(F)c2)C1 [Compound I-262],20.1,–
–,–,COCCN1C[C@@H](NC(=O)Nc2c(C)c(-c3cnn(C)c3)nn2-c2ccccc2)[C@H](c2ccc3ncsc3c2)C1 (racemic) [Compound I-107],–,"IC50 [1, 8]: < 100 nM; remaining amount of compound after reaction [5]: 92%"
–,–,C=C1C[C@@H](NC(=O)Nc2c(C)c(-c3cnn(C)c3)nn2-c2ccccc2)[C@H](c2ccccc2)C1 (racemic) [Compound I-29],21.2,"IC50 [1, 8]: < 100 nM"
95,220,CNC(=O)C(COC)N1C[C@@H](NC(=O)Nc2c(C)c(-c3cnn(C)c3)nn2-c2ccccc2)[C@H](c2ccc(F)c(F)c2)C1 (stereo partly drawn) [Compound I-109],–,–
–,–,COCCN1C[C@@H](NC(=O)Nc2c(C)c(-c3cnn(C)c3)nn2-c2ccccc2)[C@H](c2ccc3occc3c2)C1 (racemic) [Compound I-232],–,"IC50 [2, 8]: 100 to 1000 nM"
–,–,COCC[C@@H]1C[C@@H](NC(=O)Nc2c(C)c(-c3cnn(C)c3)nn2-c2ccccc2)[C@H](c2ccccc2)[C@H]1CO [Compound I-226],–,"IC50 [2, 8]: 100 to 1000 nM"
83,120,COCCN1C[C@@H](OC(=O)Nc2c(C)c(-c3cnn(C)c3)nn2-c2ccccc2)[C@H](c2ccc(F)c(F)c2)C1 (racemic) [Compound I-1],–,–
